This passage reports DC50 results from patent US12606552B2, “Bifunctional compound, preparation method therefor, and use thereof” (SUZHOU KINTOR PHARMACEUTICALS, INC., priority 2020, dated 2026).

Bounds are passed on as bounds.

For this assay, the target named is T1, AR (Homo sapiens, UniProt P10275, T878A).
T1 sequence (P10275 1-920 T878A): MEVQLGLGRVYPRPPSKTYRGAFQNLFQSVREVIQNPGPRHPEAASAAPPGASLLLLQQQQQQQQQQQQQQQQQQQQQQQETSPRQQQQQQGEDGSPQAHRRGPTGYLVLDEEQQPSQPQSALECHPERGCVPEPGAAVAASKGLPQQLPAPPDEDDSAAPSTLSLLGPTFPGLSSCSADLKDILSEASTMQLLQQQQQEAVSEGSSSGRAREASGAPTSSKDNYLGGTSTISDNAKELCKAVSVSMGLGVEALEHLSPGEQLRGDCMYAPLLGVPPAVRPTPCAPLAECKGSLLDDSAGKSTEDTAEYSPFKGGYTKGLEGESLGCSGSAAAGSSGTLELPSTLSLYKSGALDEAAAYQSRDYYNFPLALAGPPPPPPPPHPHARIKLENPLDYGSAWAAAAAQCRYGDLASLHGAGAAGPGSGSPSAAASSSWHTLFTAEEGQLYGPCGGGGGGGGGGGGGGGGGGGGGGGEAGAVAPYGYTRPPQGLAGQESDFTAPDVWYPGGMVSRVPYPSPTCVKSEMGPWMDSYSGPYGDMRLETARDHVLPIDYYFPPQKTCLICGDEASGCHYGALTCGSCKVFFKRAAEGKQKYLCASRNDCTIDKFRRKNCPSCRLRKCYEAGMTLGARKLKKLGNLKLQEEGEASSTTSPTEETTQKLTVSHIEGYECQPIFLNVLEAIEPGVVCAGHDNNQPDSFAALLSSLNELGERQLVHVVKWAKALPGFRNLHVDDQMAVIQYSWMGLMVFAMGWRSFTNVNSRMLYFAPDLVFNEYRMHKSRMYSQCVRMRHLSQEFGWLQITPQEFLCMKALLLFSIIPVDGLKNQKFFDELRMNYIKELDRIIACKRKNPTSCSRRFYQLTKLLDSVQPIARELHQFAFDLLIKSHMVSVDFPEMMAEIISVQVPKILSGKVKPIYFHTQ
Put plainly: Effects of compounds on AR expression in LNCaP cells (ELISA, DC50). The class given is cell-based. On the set-up: Measurement of the Effects of Drugs on the Expression of AR in Cells by ELISA Method; endogenous in cells; host or cells: LNCaP. To be noted: 24 hours of drug treatment, AR by ELISA. In outline:
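LNCaP cells at about 15,000/well were treated for 24 h with compound at 0.0001–2 μmol/L final. AR in cell lysates was measured by ELISA (OD450). Inhibition was relative to DMSO control after blank subtraction, and DC50 was calculated from it.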
(In general: In an ELISA, binding on a coated surface is turned into a signal by an enzyme label.)
With `CC(C)(C)[C@H](NC(=O)COCCCCCOc1ccc(-c2ncc(N3C(=S)N(c4ccc(C#N)c(C(F)(F)F)c4F)C(=O)C3(C)C)cc2F)cc1F)C(=O)N1C[C@H](O)C[C@H]1C(=O)NCc1ccccc1` [Compound A118], the DC50 was over 2000 nM.
In the case of `CC(C)(C)[C@H](NC(=O)COCCCCOc1c(F)cc(-c2ncc(N3C(=S)N(c4ccc(C#N)c(C(F)(F)F)c4F)C(=O)C3(C)C)cc2C(F)(F)F)cc1F)C(=O)N1C[C@H](O)C[C@H]1C(=O)NCc1ccccc1` [Compound A114], the DC50 is 79.3 nM.
Then `Cc1ncsc1-c1ccc(CNC(=O)[C@@H]2C[C@@H](O)CN2C(=O)[C@@H](NC(=O)COCCCCN2CCC(c3ccc(N4C(=S)N(c5ccc(C#N)c(C(F)(F)F)c5F)C(=O)C4(C)C)cn3)CC2)C(C)(C)C)cc1` [Compound A141], with over 2000 nM; and `Cc1ncsc1-c1ccc(CNC(=O)[C@@H]2C[C@@H](O)CN2C(=O)[C@@H](NC(=O)CCCN2CC(Oc3ccc(-c4ccc(N5C(=S)N(c6ccc(C#N)c(C(F)(F)F)c6F)C(=O)C5(C)C)cn4)cc3)C2)C(C)(C)C)cc1` [Compound A64], with 233 nM; and `Cc1ncsc1-c1ccc([C@H](C)NC(=O)[C@@H]2C[C@@H](O)CN2C(=O)[C@@H](NC(=O)COCCCCOc2ccc(-c3ccc(N4C(=S)N(c5ccc(C#N)c(C(F)(F)F)c5F)C(=O)C4(C)C)cn3)cc2C(F)(F)F)C(C)(C)C)cc1` [Compound A113], with 193 nM.
`Cc1ncsc1-c1ccc(CNC(=O)[C@@H]2C[C@@H](O)CN2C(=O)[C@@H](NC(=O)c2ccc(CNC(=O)c3ccc(-c4ccc(N5C(=S)N(c6ccc(C#N)c(C(F)(F)F)c6F)C(=O)C5(C)C)cn4)cc3)cc2)C(C)(C)C)cc1` [Compound A60]: the DC50 came to 82.9 nM.
Next, `CC1(C)C(=O)N(c2ccc(C#N)c(C(F)(F)F)c2F)C(=S)N1c1ccc(-c2ccc(OCCNC(=O)COc3ccc4c(c3)C(=O)N(C3CCC(=O)NC3=O)C4=O)cc2)nc1` (stereo not drawn) [Compound A38]: 58.6 nM.
For the compound `CC1(C)C(=O)N(c2ccc(C#N)c(C(F)(F)F)c2F)C(=S)N1c1ccc(C#CC2CCN(CCNC(=O)COc3cccc4c3C(=O)N(C3CCC(=O)NC3=O)C4=O)CC2)cc1` (stereo not drawn) [Compound A27], the DC50 came to 34.8 nM.
For `CC(C)(C)[C@H](NC(=O)COCCCCOc1ccc(-c2ncc(N3C(=S)N(c4ccc(C#N)c(C(F)(F)F)c4F)C(=O)C3(C)C)cc2F)c(C(F)(F)F)c1)C(=O)N1C[C@H](O)C[C@H]1c1nc(-c2ccccc2)c[nH]1` [Compound A202], the DC50 was determined as 661 nM.
The compound `Cn1cncc1-c1c[nH]c([C@@H]2C[C@@H](O)CN2C(=O)[C@@H](NC(=O)COCCCCOc2ccc(-c3ncc(N4C(=S)N(c5ccc(C#N)c(C(F)(F)F)c5F)C(=O)C4(C)C)cc3F)c(C(F)(F)F)c2)C(C)(C)C)n1` [Compound A233] registered a DC50 of 194 nM.
Next, `Cc1ncsc1-c1c[nH]c([C@@H]2C[C@@H](O)CN2C(=O)[C@@H](NC(=O)COCCCCOc2ccc(-c3ncc(N4C(=S)N(c5ccc(C#N)c(C(F)(F)F)c5F)C(=O)C4(C)C)cc3F)cc2F)C(C)(C)C)n1` [Compound A160]: 151 nM; `Cc1ncsc1-c1cn(C)c([C@@H]2C[C@@H](O)CN2C(=O)[C@@H](NC(=O)COCCCCOc2ccc(-c3ncc(N4C(=S)N(c5ccc(C#N)c(C(F)(F)F)c5F)C(=O)C4(C)C)cc3F)c(C(F)(F)F)c2)C(C)(C)C)n1` [Compound A221]: 144 nM; `CC1(C)C(=O)N(c2ccc(C#N)c(C(F)(F)F)c2F)C(=S)N1c1ccc(-c2ccc(OCCNC(=O)COc3cccc4c3C(=O)N(C3CCC(=O)NC3=O)C4=O)cc2)cc1` (stereo not drawn) [Compound A22]: 73.7 nM.
In the case of `Cc1ncsc1-c1ccc(CNC(=O)[C@@H]2C[C@@H](O)CN2C(=O)[C@@H](NC(=O)COCCCCOc2ccc(-c3ncc(N4C(=S)N(c5ccc(C#N)c(C(F)(F)F)c5F)C(=O)C4(C)C)cc3C(F)(F)F)cc2C#N)C(C)(C)C)cc1` [Compound A75], the DC50 is 89.4 nM.
For `CC(=O)O[C@@H]1C[C@@H](C(=O)NCc2ccc(-c3scnc3C)cc2)N(C(=O)[C@@H](NC(=O)COCCCCOc2ccc(-c3ncc(N4C(=S)N(c5ccc(C#N)c(C(F)(F)F)c5F)C(=O)C4(C)C)cc3F)c(C(F)(F)F)c2)C(C)(C)C)C1` [Compound A146], the DC50 is 259 nM.
Compound `Cc1ncsc1-c1ccc(CNC(=O)[C@@H]2C[C@@H](O)CN2C(=O)[C@@H](NC(=O)Cc2ccc(C(=O)Nc3ccc(-c4ccc(N5C(=S)N(c6ccc(C#N)c(C(F)(F)F)c6F)C(=O)C5(C)C)cn4)cc3)cc2)C(C)(C)C)cc1` [Compound A240] returned a DC50 of 264 nM.
In the case of `CC(C)(C)[C@H](NC(=O)COCCCCOc1ccc(-c2ncc(N3C(=S)N(c4ccc(C#N)c(C(F)(F)F)c4F)C(=O)C3(C)C)cc2F)c(C(F)(F)F)c1)C(=O)N1C[C@H](O)C[C@H]1C(=O)NCc1ccc(C(N)=O)cc1` [Compound A131], the DC50 worked out at 34.8 nM.
Then `COc1c(C#N)ccc(N2C(=O)C(C)(C)N(c3ccc(-c4ccc(OCCCCOCC(=O)N[C@H](C(=O)N5C[C@H](O)C[C@H]5C(=O)NCc5ccc(-c6scnc6C)cc5)C(C)(C)C)cc4)nc3)C2=S)c1F` [Compound A185], with 49.8 nM.
Next, `Cc1ncsc1-c1ccc(CNC(=O)[C@@H]2C[C@@H](O)CN2C(=O)[C@@H](NC(=O)COCC(F)CCOc2ccc(-c3ncc(N4C(=S)N(c5ccc(C#N)c(C(F)(F)F)c5F)C(=O)C4(C)C)cc3F)c(C(F)(F)F)c2)C(C)(C)C)cc1` (stereo partly drawn) [Compound A166]: 144 nM.
`Cc1ncsc1-c1ccc(CNC(=O)[C@@H]2C[C@@H](O)CN2C(=O)[C@@H](NC(=O)COc2ncc(N3C(=S)N(c4ccc(C#N)c(C(F)(F)F)c4F)C(=O)C3(C)C)cc2F)C(C)(C)C)cc1` [Compound A264] gave a DC50 of 870 nM.
Next, `CC(C)(C)[C@H](NC(=O)COCCCCCOc1ccc(-c2ncc(N3C(=S)N(c4ccc(C#N)c(C(F)(F)F)c4F)C(=O)C3(C)C)cc2F)cc1F)C(=O)N1C[C@H](O)C[C@H]1C(=O)NCc1ccc(C(N)=O)cc1` [Compound A117]: 111 nM; `CNC(=O)c1ccc(-c2c[nH]c([C@@H]3C[C@@H](O)CN3C(=O)[C@@H](NC(=O)COCCCCOc3ccc(-c4ccc(N5C(=S)N(c6ccc(C#N)c(C(F)(F)F)c6F)C(=O)C5(C)C)cn4)cc3)C(C)(C)C)n2)cc1` [Compound A234]: 26.1 nM; `CC(C)(C)[C@H](NC(=O)COCCOc1ccc(-c2ncc(N3C(=S)N(c4ccc(C#N)c(C(F)(F)F)c4F)C(=O)C3(C)C)cc2F)cc1F)C(=O)N1C[C@H](O)C[C@H]1C(=O)NCc1ccccc1` [Compound A130]: 131 nM.
Then `CC(C)(C)[C@H](NC(=O)COCCCCOc1c(F)cc(-c2ncc(N3C(=S)N(c4ccc(C#N)c(C(F)(F)F)c4F)C(=O)C3(C)C)cc2C(F)(F)F)cc1F)C(=O)N1C[C@H](O)C[C@H]1C(=O)NCc1ccc(C(N)=O)cc1` [Compound A116], with 370 nM; and `CC(C)(C)[C@H](NC(=O)COCCCCOc1ccc(-c2ccc(N3C(=S)N(c4ccc(C#N)c(C(F)(F)F)c4F)C(=O)C3(C)C)cn2)cn1)C(=O)N1C[C@H](O)C[C@H]1C(=O)NCc1ccccc1` [Compound A128], with 124 nM.
Then `Cc1ncsc1-c1ccc(CNC(=O)[C@@H]2C[C@@H](O)CN2C(=O)[C@@H](NC(=O)COCCOCCCOc2ncc(N3C(=S)N(c4ccc(C#N)c(C(F)(F)F)c4F)C(=O)C3(C)C)cc2F)C(C)(C)C)cc1` [Compound A267], with 119 nM; and `Cn1cncc1-c1c[nH]c([C@@H]2C[C@@H](O)CN2C(=O)[C@@H](NC(=O)COCCCCOc2ccc(-c3ccc(N4C(=S)N(c5ccc(C#N)c(C(F)(F)F)c5F)C(=O)C4(C)C)cn3)cc2)C(C)(C)C)n1` [Compound A232], with 41.3 nM; and `CC(C)(C)[C@H](NC(=O)COCCCCOc1ccc(-c2ncc(N3C(=S)N(c4ccc(C#N)c(C(F)(F)F)c4F)C(=O)C3(C)C)cc2F)c(C(F)(F)F)c1)C(=O)N1C[C@H](O)C[C@H]1c1nc(-c2cncs2)c[nH]1` [Compound A204], with 36.4 nM.
`Cc1ncsc1-c1ccc(CNC(=O)[C@@H]2C[C@@H](O)CN2C(=O)[C@@H](NC(=O)COCCOCCCCOc2ccc(N3C(=S)N(c4ccc(C#N)c(C(F)(F)F)c4F)C(=O)C3(C)C)cn2)C(C)(C)C)cc1` [Compound A254] gave a DC50 of 52.5 nM.
Next, `CC(C)(C)[C@H](NC(=O)COCCOc1ccc(-c2ncc(N3C(=S)N(c4ccc(C#N)c(C(F)(F)F)c4F)C(=O)C3(C)C)cc2F)cc1F)C(=O)N1C[C@H](O)C[C@H]1C(=O)NCc1ccc(C(N)=O)cc1` [Compound A129]: 67.9 nM.
